Test results published in patent US20230086702A1, “SUBSTITUTED 2-AMINO-PYRAZOLYL-[1,2,4]TRIAZOLO[1,5A]PYRIDINE DERIVATIVES AND USE THEREOF” (The Johns Hopkins University, priority 2019, published 2023).

Tests used:
LZK = target: T1, LZK (Homo sapiens, UniProt O43283); assay: LZK biochemical assay (TR-FRET, MKK7 phosphorylation)
T1 construct: 10 nM LZK, catalytic domain, Carna Biosiences in assay buffer; purchased Carna Biosciences ('Carna Biosiences' [sic])
T1 sequence (O43283 168-409 limits assumed): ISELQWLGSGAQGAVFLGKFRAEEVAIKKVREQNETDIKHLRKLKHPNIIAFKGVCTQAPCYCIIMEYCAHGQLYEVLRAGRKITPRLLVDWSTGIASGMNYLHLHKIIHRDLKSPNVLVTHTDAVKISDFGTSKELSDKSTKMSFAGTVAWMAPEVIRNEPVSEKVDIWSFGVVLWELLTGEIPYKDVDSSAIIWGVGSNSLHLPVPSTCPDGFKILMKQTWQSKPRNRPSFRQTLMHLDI
Description: (§1) LZK assay is a biochemical assay format designed to screen for inhibitors of LZK. Enzymatic activity of LZK is measured by monitoring phosphorylation of the physiological substrate MKK7 (MAP2K7, Dual specificity mitogen-activated protein kinase kinase 7). Phosphorylation is detected by a TR-FRET system whereby His-tagged MKK7 is labeled by a XL665-labeled anti-His antibody (FRET acceptor, emission 665 nm). LZK phosphorylates MKK7 at T275/S277 which is detected by an Eu-labeled anti-phospho-MKK7 (T275/S277) antibody (FRET donor, excitation 340 nm). Phosphorylation of MKK7 results in an increased TR-FRET signal (Ratio XL665-channel/Eu-channel) and inhibition of enzymatic activity of LZK decreases the TR-FRET signal.
(§2) Assay Protocol for 384 low volume MTP format: 1 μl of test compound is pipetted into test plate; +5 μl LZK solution (10 nM LZK, catalytic domain, Carna Biosiences in assay buffer); +5 μl substrate solution (15 nM MKK7, LDB; 15 μM ATP, in assay buffer); 90 min incubation at RT; +5 μl detection mix (20 nM XL665-labeled anti-His antibody, Cisbio; 0.4 nM Eu-labeled anti-phospho-MKK7 (T275/S277), Cisbio/Millipore in detection buffer); 16 h incubation at 32° C.; endpoint measurement BMG (HTRF).
(§3) All indicated concentrations final concentrations.
(§4) Assay buffer (384 format): 50 mM Hepes pH 7.5, 10 mM MgCl2, 1 mM EGTA, 1 mM DTT, 0.01% Triton X-100, 0.01% BSA, 1:500 Smart Block.
(§5) Detection buffer: 25 mM Tris/HCl pH 7.5, 100 mM EDTA, 100 mM NaCl, 200 mM KF, 0.01% Tween 20, 1:500 Smart Block.

DLK = target: T2, DLK (Homo sapiens, UniProt Q12852); assay: DLK biochemical assay (TR-FRET, MKK7 phosphorylation)
T2 construct: 10 nM DLK, catalytic domain, Carna Biosiences; purchased Carna Biosciences ('Carna Biosiences' [sic])
T2 sequence (Q12852 125-366 limits assumed): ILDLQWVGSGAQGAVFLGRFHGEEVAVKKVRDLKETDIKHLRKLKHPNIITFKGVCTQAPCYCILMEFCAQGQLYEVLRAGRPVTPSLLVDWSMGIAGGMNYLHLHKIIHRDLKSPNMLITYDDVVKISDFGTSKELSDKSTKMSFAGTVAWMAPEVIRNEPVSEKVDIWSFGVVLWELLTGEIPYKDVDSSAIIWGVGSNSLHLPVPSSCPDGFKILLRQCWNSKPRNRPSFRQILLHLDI
Description: as §1, with “DLK assay” for “LZK assay”, “of DLK.” for “of LZK.”, “of DLK” for “of LZK”, “nm). DLK” for “nm). LZK”, “at T275/S277,” for “at T275/S277”
Assay Protocol for 1536 MTP format: test compounds are predispensed (60 nl) in test plates; +3 μl DLK solution (10 nM DLK, catalytic domain, Carna Biosiences, 0.6 mM DTT in assay buffer); +2 μl substrate solution (15 nM MKK7, LDB; 60 μM ATP; 0.4 mM DTT in assay buffer); 90 min incubation at RT; +2 μl detection mix (5 nM XL665-labeled anti-His antibody, Cisbio; 0.1 nM Eu-labeled anti-phospho-MKK7 (T275/S277), Cisbio/Millipore in detection buffer); 16 h incubation at 37° C.; endpoint measurement BMG (HTRF).
as §2, with “test compounds” for “test compound”, “μl DLK” for “μl LZK”, “nM DLK,” for “nM LZK,”, “LDB; 60” for “LDB; 15”, “RT; +9” for “RT; +5”, “at 4°” for “at 32°”
as §3, §4, §5

Compound	IC50 (LZK)	IC50 (DLK)
Nc1nc2cc(-c3cnn(Cc4ccccc4)c3)cc(-c3cnccn3)n2n1 [II-86, 7-(1-Benzyl-1H-pyrazol-4-yl)-5-(pyrazin-2-yl)[1,2,4]triazolo[1,5-a]pyridin-2-amine]	900 nM	54 nM
COc1cc(C(C(C)C)n2cc(-c3cc(-c4cnn(CC(F)(F)F)c4)n4nc(N)nc4c3)cn2)ccn1 (single isomer, unassigned) [II-137, 7-{1-[1-(2-Methoxypyridin-4-yl)-2-methylpropyl]-1H-pyrazol-4-yl}-5-[1-(2,2,2-trifluoroethyl)-1H-pyrazol-4-yl][1,2,4]triazolo[1,5-a]pyridin-2-amine]	720 nM	40 nM
CC[C@@H](c1ccc(F)cc1)n1cc(-c2cc(-c3cnn(CC(F)(F)F)c3)c3nc(N)nn3c2)cn1 [II-98, 6-{1-[(1S)-1-(4-fluorophenyl)propyl]-1H-pyrazol-4-yl}-8-[1-(2,2,2-trifluoroethyl)-1H-pyrazol-4-yl][1,2,4]triazolo[1,5-a]pyridin-2-amine]	56 nM	14 nM
Nc1nc2cc(-c3cnn(C(c4ccc(C(F)(F)F)nc4)C4CCOCC4)c3)cc(-c3ccnc(C(F)(F)F)c3)n2n1 (racemic) [II-34, 7-(1-{Tetrahydro-2H-pyran-4-yl[6-(trifluoromethyl)pyridin-3-yl]methyl}-1H-pyrazol-4-yl)-5-[2-(trifluoromethyl)pyridin-4-yl][1,2,4]triazolo[1,5-a]pyridin-2-amine]	7.1 nM	15 nM
CCC(c1ccc(C(F)(F)F)cc1)n1cc(-c2cc(-c3cnn(CC(F)(F)F)c3)n3nc(N)nc3c2)cn1 (single isomer, unassigned) [II-130, 5-[1-(2,2,2-Trifluoroethyl)-1H-pyrazol-4-yl]-7-(1-{1-[4-(trifluoromethyl)phenyl]propyl}-1H-pyrazol-4-yl)[1,2,4]triazolo[1,5-a]pyridin-2-amine]	670 nM	120 nM
CCC(c1ccc(C(F)F)nc1)n1cc(-c2cc(-c3cnn(CC(F)(F)F)c3)c3nc(N)nn3c2)cn1 (single isomer, unassigned) [II-106, 6-(1-{1-[6-(Difluoromethyl)pyridin-3-yl]propyl}-1H-pyrazol-4-yl)-8-[1-(2,2,2-trifluoroethyl)-1H-pyrazol-4-yl][1,2,4]triazolo[1,5-a]pyridin-2-amine]	47 nM	40 nM

Second part, the compound after the results:

IC50 (LZK)	IC50 (DLK)	Compound
37 nM	6.3 nM	CCC(c1ccc(C(F)(F)F)nc1)n1cc(-c2cc(-c3cnn(CC(F)F)c3)c3nc(N)nn3c2)cn1 (racemic) [II-108, 8-[1-(2,2-Difluoroethyl)-1H-pyrazol-4-yl]-6-(1-{1-[6-(trifluoromethyl)pyridin-3-yl]propyl}-1H-pyrazol-4-yl)[1,2,4]triazolo[1,5-a]pyridin-2-amine]
160 nM	17 nM	Nc1nc2cc(-c3cnn(Cc4ccccc4)c3)cc(-c3cnn(C4CCOC4)c3)n2n1 (centres unmarked) [II-125]
52 nM	24 nM	CCC(c1ccc(C(F)(F)F)nc1)n1cc(-c2cc(-c3ccc(C(F)(F)F)nc3)c3nc(N)nn3c2)cn1 (single isomer, unassigned) [II-39, 8-[6-(Trifluoromethyl)pyridin-3-yl]-6-(1-{1-[6-(trifluoromethyl)pyridin-3-yl]propyl}-1H-pyrazol-4-yl)[1,2,4]triazolo[1,5-a]pyridin-2-amine]
50 nM	16 nM	Nc1nc2cc(-c3cnn(C(c4ccc(C(F)(F)F)nc4)C4CCOCC4)c3)cc(-c3cn(CC(F)(F)F)c(=O)cn3)n2n1 (single isomer, unassigned) [II-196, 5-[2-Amino-7-(1-{tetrahydro-2H-pyran-4-yl[6-(trifluoromethyl)pyridin-3-yl]methyl}-1H-pyrazol-4-yl)[1,2,4]triazolo[1,5-a]pyridin-5-yl]-1-(2,2,2-trifluoroethyl)pyrazin-2(1H)-one]
